This passage reports IC50 results from patent US10870635B2, “Compounds and their use as BACE1 inhibitors” (ALLGENESIS BIOTHERAPEUTICS, INC., priority 2015, dated 2020).

Read-outs that look alike come from different tables or passages of the source.

The test system of this assay is cellular production of amyloid β peptide (Aβ40) in 7PA2 CHO cells. As to the kind of experiment: Cell amyloid-beta production assay (MSD electrochemiluminescence immunoassay). It is filed as cell-based. The settings on record: 12 hours incubation, read-out: Cell Abeta40 IC50. An excerpt: Amyloid-β (Aβ) is a 33-42-amino acid post-proteolytic peptide generated as the result of the sequential cleavage of amyloid precursor protein (APP) by BACE1 and γ-secretase. Substantial evidence points to aggregation and deposition of certain isoforms of amyloid β peptide in the brain being causal to neurodegeneration and dementia typical of AD. There are two major isoforms of Aβ which are monitored as a biomarker to gain early read on Aβ aggregation: Aβ340 and Aβ342. Increased extracellular accumulation of amyloid β peptide results in the formation of amyloid β peptide oligomers, cerebral amyloid plaques, neurodegeneration, and ultimately brain atrophy, all of which play a pivotal role in AD neuropathological hallmarks.
The reagents for the cell amyloid beta production assay were prepared as follows.
7PA2 CHO cells (licensed from Dr. Dennis Selkoe's laboratory) were plated into 96-well plates at a density of 50,000 cells per […] complete medium (DMEM medium containing 10% fetal bovine serum, L-glutamine, penicillin/streptomycin and 200 μg/ml of G418). Cells were incubated for 16-18 hours in complete medium and the culture medium was aspirated and discarded. Fresh complete medium containing test articles or positive control, LY2886721, within drug concentration range from 0.01 to 100 nM or complete medium only (controls) was added for 12 hours, and the cell culture medium was assayed directly or following a dilution with complete cell culture medium and frozen at −80° C. until it could be assayed for Aβ38, Aβ40 and Aβ42 content using an MSD multiplex electrochemiluminescence immunoassay.
In the Meso Scale Discovery electrochemiluminescence immunoassay, on a block plate, add 150 μL of Diluent 35 to each well, seal the plate with an adhesive plate seal and incubate with shaking for 1 hour at room temperature. Wash and then add detection antibody solution and samples. Wash the plate 3 times with at least 150 μL/well of wash buffer. […] Add 150 μL of 2× Read Buffer T to each well. Read the plate on the MSD imager. No incubation in read buffer is required before reading the plate. […]

The IC50 is the concentration that gives 50% inhibition.

On to `CC#Cc1ccc2sc3ccc([C@]4(C)CS(=O)(=O)C(C)(C)C(N)=N4)cc3c2c1` [Example 103, (R)-5-Amino-3,6,6-trimethyl-3-(8-(prop-1-yn-1-yl)dibenzo[b,d]thiophen-2-yl)-3,6-dihydro-2H-1,4-thiazine 1,1-dioxide], for which, where the note is “Cricetulus griseus, CHO, 12 h”, the half-inhibitory concentration (IC50) stood at 13 nM.

For `CC#Cc1ccc2sc3cc(F)c([C@]4(C)CS(=O)(=O)C(C)(C)C(=N)N4)cc3c2c1` [Example 109, (R)-5-Amino-3-(3-fluoro-8-(prop-1-yn-1-yl)dibenzo[b,d]thiophen-2-yl)-3,6,6-trim ethyl-3,6-dihydro-2H-1,4-thiazine 1,1-dioxide], the IC50 worked out at 5 nM. The concentration for half-maximal inhibition (IC50) (Cricetulus griseus, CHO, 12 h) is 5.5 ± 1.95 nM.
